Experiments:
[1] = tested on: HBeAg (surrogate marker for cccDNA) in HepDES19 cells; experiment: Engineered HepDES19 primary screen assay (HBeAg ELISA); type: cell-based, HBV; conditions: Hepatitis B virus, HepDES19, 120 h, read-out: IC50 (HBeAg level, HepDES19 primary screen assay)
Excerpt: The assay was employed to screen for novel cccDNA inhibitors. HepDES19 is a cccDNA-producing cell line. In this cell line, HBeAg in the cell culture supernatant as surrogate marker, as HBeAg production depends on cccDNA level and activity. HepDES19 is an engineered cell line which contains a 1.1 unit length HBV genome, and pgRNA transcription from the transgene is controlled by Tetracycline (Tet). In the absence of Tet, pgRNA transcription will be induced, but HBV e antigen (HBeAg) could not be produced from this pgRNA due to very short leader sequence before the HBeAg start codon and the start codon is disrupted. Only after cccDNA is formed, the missing leader sequence and start codon mutation would be restored from the 3′-terminal redundancy of pgRNA, and then HBeAg could be synthesized. Therefore, HBeAg could be used as a surrogate marker for cccDNA (Zhou, T. et al., Antiviral Res. (2006), 72(2), 116-124; Guo, H. et al., J. Virol. (2007), 81(22), 12472-12484).
HepDES19 cells were seeded at 2×10^6 cells per T150 flask and cultured with the culture medium (Dulbecco's Modified Eagle Medium: Nutrient Mixture F-12 [DMEM-F12, Gibco Cat. 11320-82], 10% Fetal Bovine Serum [FBS, Clontech Cat. 631101], 0.1 mM Non-Essential Amino Acids Solution [NEAA, Gibco Cat. 11140-050], 50 μg/mL Penicillin-Streptomycin [PS, Invitrogen Cat. 15140-163], 500 μg/mL Geneticin [G418, Invitrogen Cat. 10131-027]) containing 3 μg/mL Tet (Sigma, Cat. 87128) for 5 days. Cells were then seeded at 4×10^6 cells per T150 in the same culture medium as described above in the absence of Tet for 8 days. Cells were then harvested and frozen at density of 2×10^6 cells per ML. For compound testing, the frozen cells were thawed and seeded into 96-well plates at a density of 6×10^4 cells per well. At 24 hours after seeding, half log serial dilutions of compounds made with Dimethyl sulfoxide (DMSO, Sigma, Cat. D2650) were further diluted with the same culture medium as described above before they were added to the cells to reach desired final compound concentrations and 1% DMSO concentration. Plates were then incubated at 37° C. for another 5 days before measurement of HBeAg level and cell viability. Intracellular HBeAg level were measured with enzyme-linked immunosorbent assay (ELISA) kit (Shanghai Kehua Diagnostic Medical Products Co., Ltd). Cell viability was assessed using Cell Counting Kit-8 (DonJindo, Cat. CK04-20). IC50 values were derived from the dose-response curve using 4 parameter logistic curve fit method.
The compounds of the present invention were tested for their capacity to inhibit extracellular HBeAg level as described herein.

[2] = tested on: HBV (extracellular HBsAg) in PHH; experiment: Cryopreserved primary human hepatocytes (PHH) HBV infection assay, HBsAg CLIA; type: cell-based; conditions: Hepatitis B virus, Hepatocyte, 216 h, read-out: HBsAg IC50
Description: This assay is used to confirm the anti-HBV effect of the compounds in HBV PHH infection assay. Cryopreserved PHH (BioreclamationIVT, Lot YJM) was thawed at 37° C. and gently transferred into pre-warmed InVitroGRO HT medium (BioreclamationIVT, Cat. S03317). The mixture was centrifuged at 70 relative centrifugal force (RCF) for 3 minutes at RT, and the supernatant was discarded. Pre-warmed InVitroGRO CP medium (BioreclamationIVT, Cat #S03316) was added to the cell pellet to gently re-suspend cells. The cells were seeded at the density of 5.8×10^4 cells per well to collagen I coated 96-well plate (Gibco, Cat. A1142803) with the InVitroGRO CP medium. All plates were incubated at 37° C. with 5% CO2 and 85% humidity.
At 20 hours after plating, the medium was changed to PHH culture medium (Dulbecco's Modified Eagle Medium (DMEM)/F12 (1:1) (Gibco, Cat. 11320-033), 10% fetal bovine serum (Gibco Cat. 10099141), 100 U/mL penicillin, 100 μg/mL streptomycin (Gibco, Cat. 151401-122), […] (Invitrogen Cat. PHG0311L), 20 ng/mL dexamethasone (Sigma, Cat. D4902) and 250 ng/mL human recombinant insulin (Gibco, Cat. 12585-014)). And the cells were incubated at 37° C. with 5% CO2 and 85% humidity for 4 hours. The medium was then changed to pre-warmed PHH culture medium containing 4% polyethylene glycol (PEG) MW8000 (Sigma, Cat. P1458-50ML) and 1% DMSO (Sigma, Cat. D2650). 5.8×10^6 genomic equivalents of HBV were added into the medium.
At 24 hours post-infection, the cells were gently washed with PBS and refreshed with PHH culture medium supplemented with 1% DMSO, and 0.25 mg/mL Matrix gel (Corning, Cat. 356237) at 200 μL per well. All plates were immediately placed in at 37° C. CO2 incubator.
24 hours later, serial dilutions of compounds made with DMSO were further diluted with the same culture medium (PHH culture medium supplemented with 1% DMSO and 0.25 mg/mL Matrix gel as described above) before they were added to the cells to reach desired final compound concentrations and 1% DMSO concentration. The medium containing the compounds were refreshed every three days.
At 9 days post-compound treatment, extracellular HBsAg level were measured with Chemiluminescence Immuno Assay (CLIA) kit (Autobio, HBsAg Quantitative CLIA). Extracellular HBV DNA was extracted by MagNA Pure 96 system (Roche) and then determined by quantitative PCR with the following primers and probe: […]
HBsAg IC50 and HBV DNA IC50 values were derived from the dose-response curve using 4 parameter logistic curve fit method. The compounds of formula (I) have HBsAg IC50<20 μM, particularly <1 μM; and HBV DNA IC50<50 μM.

## Cc1ccc(-c2cc(=O)c3cccc(Cl)c3o2)cc1O[C@H]1C[C@@H](C(=O)O)C1 [Example 15, Cis-3-[5-(8-chloro-4-oxo-chromen-2-yl)-2-methyl-phenoxy]cyclobutanecarboxylic acid]
[1]
  IC50: 0.49 µM
[2]
  IC50: 1.96 µM

## COc1ccc(OCCO[C@H]2C[C@@H](C(=O)O)C2)cc1-c1cc(=O)c2cccc(Cl)c2o1 [Example 31, Cis-3-[2-[3-(8-Chloro-4-oxo-chromen-2-yl)-4-methoxy-phenoxy]ethoxy]cyclobutanecarboxylic acid]
[1]
  IC50: 4.66 µM
[2]
  IC50: 10.2 µM

## COc1cc(Br)c(OCCO[C@H]2C[C@@H](C(=O)O)C2)cc1-c1cc(=O)c2cccc(Cl)c2o1 [Example 1, Cis-3-[2-[2-bromo-5-(8-chloro-4-oxo-chromen-2-yl)-4-methoxy-phenoxy]ethoxy]cyclobutanecarboxylic acid]
[1]
  IC50: 3.18 µM
[2]
  IC50: 8.02 µM

## COc1cc(C)c(OCCCOCC(=O)O)cc1-c1cc(=O)c2cccc(Cl)c2o1 [Example 11, 2-[3-[5-(8-Chloro-4-oxo-chromen-2-yl)-4-methoxy-2-methyl-phenoxy]propoxy]acetic acid]
[1]
  IC50: 2.43 µM
[2]
  IC50: 7.4 µM

## O=C(O)COc1cc(-c2cc(=O)c3cccc(Cl)c3o2)ccc1C(F)(F)F [Example 22, 2-[5-(8-Chloro-4-oxo-chromen-2-yl)-2-(trifluoromethyl)phenoxy]acetic acid]
[1]
  IC50: 0.32 µM
[2]
  IC50: 6.59 µM

## COc1cc(Br)c(OC2CC(C(=O)O)C2)cc1-c1cc(=O)c2cccc(Cl)c2o1 (stereo not drawn) [Example 5, 3-[2-Bromo-5-(8-chloro-4-oxo-chromen-2-yl)-4-methoxy-phenoxy]cyclobutanecarboxylic acid]
[1]
  IC50: 6.08 µM
[2]
  IC50: 4.09 µM

## COc1ccc(OCCC(=O)O)cc1-c1cc(=O)c2cccc(Cl)c2o1 [Example 33, 3-[3-(8-Chloro-4-oxo-chromen-2-yl)-4-methoxy-phenoxy]propanoic acid]
[1]
  IC50: 6.75 µM

## Cc1ccc(-c2cc(=O)c3cccc(Cl)c3o2)cc1OCC(=O)O [Example 14, 2-[5-(8-Chloro-4-oxo-chromen-2-yl)-2-methyl-phenoxy]acetic acid]
[1]
  IC50: 6.32 µM

## COc1cc(Br)c(OCCC(=O)O)cc1-c1cc(=O)c2cccc(Cl)c2o1 [Example 2, 3-[2-Bromo-5-(8-chloro-4-oxo-chromen-2-yl)-4-methoxy-phenoxy]propanoic acid]
[1]
  IC50: 1.19 µM
[2]
  IC50: 3.85 µM

## COc1cc(-c2cc(=O)c3cccc(Cl)c3o2)cc(O[C@H]2C[C@@H](C(=O)O)C2)c1OC [Example 23, Cis-3-[5-(8-chloro-4-oxo-chromen-2-yl)-2,3-dimethoxy-phenoxy]cyclobutanecarboxylic acid]
[1]
  IC50: 7.36 µM

## COc1c(-c2cc(=O)c3cccc(Cl)c3o2)ccc(C)c1OC1CC(C(=O)O)C1 (stereo not drawn) [Example 36, 3-[3-(8-Chloro-4-oxo-chromen-2-yl)-2-methoxy-6-methyl-phenoxy]cyclobutanecarboxylic acid]
[1]
  IC50: 3.13 µM
[2]
  IC50: 9.26 µM

## COc1cc(Br)c(OCCCNC(=O)C(=O)O)cc1-c1cc(=O)c2cccc(Cl)c2o1 [Example 46, 2-[3-[2-Bromo-5-(8-chloro-4-oxo-chromen-2-yl)-4-methoxy-phenoxy]propylamino]-2-oxo-acetic acid]
[1]
  IC50: 0.61 µM

## COc1cc(Cl)c(OCCO[C@H]2C[C@@H](C(=O)O)C2)cc1-c1cc(=O)c2cccc(Cl)c2o1 [Example 8, Cis-3-[2-[2-chloro-5-(8-chloro-4-oxo-chromen-2-yl)-4-methoxy-phenoxy]ethoxy]cyclobutanecarboxylic acid]
[1]
  IC50: 1.5 µM
[2]
  IC50: 5.13 µM

## COc1ccc(OC2CC(C(=O)O)C2)cc1-c1cc(=O)c2cccc(Cl)c2o1 (stereo not drawn) [Example 30, 3-[3-(8-Chloro-4-oxo-chromen-2-yl)-4-methoxy-phenoxy]cyclobutanecarboxylic acid]
[1]
  IC50: 7.51 µM

## COc1cc(OC)c(-c2cc(=O)c3cccc(Cl)c3o2)cc1OC1CC(C(=O)O)C1 (stereo not drawn) [Example 12, 3-[5-(8-Chloro-4-oxo-chromen-2-yl)-2,4-dimethoxy-phenoxy]cyclobutanecarboxylic acid]
[1]
  IC50: 0.62 µM

## COc1c(-c2cc(=O)c3cccc(Cl)c3o2)ccc(Br)c1OC1CC(C(=O)O)C1 (stereo not drawn) [Example 35, 3-[6-Bromo-3-(8-chloro-4-oxo-chromen-2-yl)-2-methoxy-phenoxy]cyclobutanecarboxylic acid]
[1]
  IC50: 0.19 µM
[2]
  IC50: 3.91 µM

## COc1ccc(-c2cc(=O)c3cccc(Cl)c3o2)cc1OC1CC(C(=O)O)C1 (stereo not drawn) [Example 17, 3-[5-(8-Chloro-4-oxo-chromen-2-yl)-2-methoxy-phenoxy]cyclobutanecarboxylic acid]
[1]
  IC50: 0.72 µM

Source: patent US20220213049A1, “S[…]-4-ONE FOR THE TREATMENT AND PROPHYLAXIS OF HEPATITIS B VIRUS INFECTION” (priority 2019, published 2022)
